Source: paper PMC9964957, “A Liquid Chromatography Tandem Mass Spectrometry Method for the Simultaneous Estimation of the Dopamine Receptor Antagonist LE300 and Its N-methyl Metabolite in Plasma: Application to a Pharmacokinetic Study” (Molecules, 2023)
Where two headings read alike, the source gives them in different places.

Experiments:
[1] = Stability in stock preparations; assay type: physicochemical; settings: stock preparations kept at −80 °C for 28 days
Description: LE300 and MLE300 stock solutions were prepared separately in a mixture of methanol and water (1:1) at a concentration of 1 mg/mL. Ponatinib (IS) stock solution was prepared in DMSO at 1 mg/mL. […] Successive working solutions of LE300 and MLE300 were additionally obtained through dilution using ultrapure water at concentrations of 0.05, 0.5, 5, and 20 µg/mL. A working solution of IS was prepared in ultrapure water at a concentration of 20 ng/mL. Two calibrators at concentrations ranged from 1 to 200 ng/mL and 2 to 200 ng/mL for LE300 and MLE300, respectively, were prepared in blank rat plasma from the intermediate solutions. Different quality control samples for LE300 at 1.0 ng/mL for the LLOQ, 3.0 ng/mL for the QC sample at low concentration, (LOQ), 75 ng/mL for the QC sample at mid concentration (MQC), and 175 ng/mL for the QC sample at high concentration (HQC) were prepared by spiking an appropriate volume of the intermediate solutions with blank rat plasma. Similarly, different quality control samples for MLE300 at 2.0, 6.0, 90, and 180 ng/mL for LLOQ, LOQ, MQC, and HQC were prepared. The peak area ratios of LE300 and MLE300 to IS were treated to obtain the calibration curve of each drug. Alternatively, the corresponding regression equation was derived.

[2] = rat plasma
in vivo = settings: male, Wistar, rat, plasma, po, 10 mg/kg
[3] = high QC (nominal 175 ng/mL LE300, 180 ng/mL MLE300)
[4] = low QC (nominal 3 ng/mL LE300, 6 ng/mL MLE300)

| SMILES | Stability in stock preparations [1] | CL/F (total clearance of the drug from plasma after oral administration) (rat plasma, single oral dose 10 mg/kg LE300, mean ± SD, six rats) [L/h] | Autosampler Stability (24 h at 15 °C) [2, 3] [%] | Freeze-Thaw Stability (3 cycles, −80 °C) [2, 3] [%] | Long-Term Stability (−80 °C for 28 d) [2, 3] [%] | Short-Term Stability (4 h at Room T) [2, 3] [%] | Autosampler Stability (24 h at 15 °C) [2, 4] [%] | Freeze-Thaw Stability (3 cycles, −80 °C) [2, 4] [%] | Long-Term Stability (−80 °C for 28 d) [2, 4] [%] | Short-Term Stability (4 h at Room T) [2, 4] [%] | AUC(0-inf) (in vivo) [ng·h/mL] | AUC(0-t) (in vivo) [ng·h/mL] | Cmax (in vivo) [ng/mL] | Tmax (in vivo) [h] | half-life (in vivo) [h] | CL/F (total clearance of the drug from plasma after oral administration) (rat, in vivo, po, 10 mg/kg) [L/h] | Cmax (in vivo; Cmax (maximum plasma concentration), rat plasma, single oral dose 10 mg/kg LE300, mean ± SD, six rats) [ng/mL] |
| --- | --- | --- | --- | --- | --- | --- | --- | --- | --- | --- | --- | --- | --- | --- | --- | --- | --- |
| CN1CCc2ccccc2Cc2c(c3ccccc3n2C)CC1 [MLE300] | perfect stability | 0.012 ± 0.01 | 98.5 ± 1.7 | 99.5 ± 1.5 | 99.2 ± 2.3 | 98.8 ± 1.8 | 99.3 ± 1.7 | 98.2 ± 1.4 | 98.9 ± 1.4 | 97.9 ± 1.6 | 790 ± 37.2 | 762 ± 34.3 | 170 ± 26.3 | 3 ± 0.18 | 4.56 ± 0.29 |  |  |
| CN1CCc2ccccc2Cc2[nH]c3ccccc3c2CC1 [LE300, 7-methyl-6,7,8,9,14,15-hexahydro-5Hbenz[d]indolo[2,3-g]azecine] | perfect stability |  | 98.9 ± 1.3 | 99.2 ± 1.3 | 99.2 ± 1.7 | 98.3 ± 1.8 | 98.5 ± 1.8 | 97.9 ± 1.5 | 97.7 ± 1.4 | 98.5 ± 1.6 | 577 ± 22.4 | 524 ± 24.3 |  | 2 ± 0.18 | 7.38 ± 0.17 | 0.017 ± 0.01 | 151 ± 12.5 |
